Measurements: the NIST ThermoML archive (doi:10.1021/je400212t)
Where “and” joins values, the source holds several entries; their conditions need not be identical. Equal values may be shown once.

Conditions: Liquid, Transpiration method

CCCCCCCCCCN [1-decanamine]
Conditions | vapor or sublimation pressure
299.1 K | 0.013 kPa
300.2 K | 0.014 kPa
301.3 K | 0.0158 kPa
304 K | 0.0195 kPa
306.2 K | 0.0228 kPa
307.3 K | 0.0262 kPa
308.6 K | 0.0291 kPa
310.2 K | 0.0321 kPa
312.2 K | 0.036 kPa
313.2 K | 0.0426 kPa
315.1 K | 0.046 kPa
316.2 K | 0.0512 kPa
317.2 K | 0.0553 kPa
320 K | 0.0655 kPa
320.9 K | 0.0722 kPa
323.2 K | 0.0805 kPa
324.3 K | 0.0911 kPa and 0.0914 kPa
327.2 K | 0.106 kPa
330.1 K | 0.135 kPa and 0.1356 kPa
332.8 K | 0.1661 kPa and 0.1645 kPa
333.1 K | 0.1628 kPa and 0.1635 kPa
335.9 K | 0.1979 kPa and 0.2119 kPa
338.9 K | 0.2519 kPa and 0.2628 kPa
341.9 K | 0.3064 kPa and 0.3025 kPa
343 K | 0.3357 kPa

CCCCCCCN [1-heptanamine]
Conditions | vapor or sublimation pressure [kPa]
280.2 K | 0.07823
282.2 K | 0.09451
284.2 K | 0.1088
286.2 K | 0.1232
288.2 K | 0.1408
290.2 K | 0.1641
292.2 K | 0.1907
294.2 K | 0.2219
296.2 K | 0.2488
298.3 K | 0.2885
300.3 K | 0.3288
302.2 K | 0.38
303.2 K | 0.4098
306.2 K | 0.5027

CCCCCCCCN [1-octanamine]
Conditions | vapor or sublimation pressure
274.2 K | 0.0157 kPa
277.7 K | 0.0208 kPa
281 K | 0.0274 kPa
283.2 K | 0.0325 kPa
283.6 K | 0.0347 kPa
285.9 K | 0.0428 kPa
286.5 K | 0.0428 kPa
289.2 K | 0.0517 kPa
289.6 K | 0.0545 kPa
292.4 K | 0.069 kPa and 0.0677 kPa
295.2 K | 0.084 kPa
295.3 K | 0.0856 kPa and 0.0834 kPa
298.1 K | 0.1047 kPa
298.5 K | 0.1064 kPa
301.1 K | 0.1353 kPa
301.2 K | 0.1294 kPa and 0.1369 kPa and 0.1341 kPa
301.3 K | 0.1312 kPa and 0.1328 kPa
304 K | 0.1653 kPa
304.1 K | 0.1667 kPa
307.1 K | 0.2113 kPa
307.3 K | 0.2102 kPa
310.2 K | 0.2494 kPa
310.3 K | 0.2578 kPa
312.3 K | 0.3051 kPa
313 K | 0.3121 kPa
313.3 K | 0.3238 kPa

CC(N)c1ccccc1 (configuration not stated) [1-phenylethanamine]
Conditions | vapor or sublimation pressure
283.6 K | 0.02509 kPa
287.8 K | 0.03534 kPa
291.3 K | 0.04928 kPa and 0.04951 kPa
295.3 K | 0.06595 kPa
299.2 K | 0.08866 kPa
303.1 K | 0.1183 kPa
307.1 K | 0.1552 kPa
311 K | 0.2024 kPa
314.9 K | 0.2602 kPa
318.9 K | 0.3391 kPa
322.8 K | 0.4391 kPa

NCCc1ccccc1 [2-phenylethylamine]
Conditions | vapor or sublimation pressure
285.2 K | 0.01545 kPa
287.4 K | 0.01817 kPa
288.2 K | 0.01989 kPa and 0.01942 kPa
290.1 K | 0.02316 kPa
293.1 K | 0.02888 kPa
293.2 K | 0.03129 kPa
298.2 K | 0.04648 kPa and 0.04334 kPa
298.3 K | 0.0443 kPa
300.1 K | 0.05196 kPa
302 K | 0.06007 kPa
303.2 K | 0.06532 kPa
303.3 K | 0.06414 kPa and 0.06328 kPa
304.2 K | 0.06955 kPa
305.1 K | 0.07177 kPa and 0.0755 kPa
306.4 K | 0.08176 kPa
308.2 K | 0.09258 kPa and 0.0878 kPa
310.4 K | 0.1067 kPa
311.2 K | 0.1201 kPa
313.2 K | 0.1331 kPa
313.4 K | 0.1311 kPa
314.2 K | 0.1374 kPa
317.2 K | 0.1818 kPa
318.2 K | 0.1891 kPa
318.4 K | 0.1878 kPa
320.2 K | 0.2187 kPa
323.2 K | 0.2655 kPa

NCc1ccccc1 [benzylamine]
Conditions | vapor or sublimation pressure
275.5 K | 0.01437 kPa
276.7 K | 0.01472 kPa and 0.01525 kPa
278.6 K | 0.01828 kPa
279.6 K | 0.01912 kPa and 0.02004 kPa
281.5 K | 0.02307 kPa
282.3 K | 0.02534 kPa and 0.02615 kPa
284.5 K | 0.03135 kPa
285.7 K | 0.03458 kPa and 0.03341 kPa
287.6 K | 0.03874 kPa
288 K | 0.03934 kPa
290.5 K | 0.04695 kPa
291.6 K | 0.05362 kPa
293.5 K | 0.06098 kPa
294.2 K | 0.06487 kPa
296.5 K | 0.07884 kPa
297.7 K | 0.08247 kPa
298.4 K | 0.0869 kPa
300.3 K | 0.1015 kPa
301.3 K | 0.1137 kPa
303.3 K | 0.1283 kPa
303.4 K | 0.1277 kPa and 0.1263 kPa
303.5 K | 0.126 kPa
304.3 K | 0.1363 kPa
306.1 K | 0.1469 kPa
306.3 K | 0.1514 kPa
307.4 K | 0.1693 kPa
308.3 K | 0.1781 kPa
308.4 K | 0.1767 kPa
309.4 K | 0.1871 kPa
309.5 K | 0.1951 kPa
310.3 K | 0.2082 kPa
312.2 K | 0.2284 kPa
312.3 K | 0.2272 kPa and 0.2339 kPa
313.4 K | 0.2491 kPa
315.6 K | 0.3016 kPa
